The subject of this assay is bladder cancer cell lines. As to the kind of experiment: Cell based assay, cell viability (CellTiter-Glo), bladder cancer cell lines. The settings on record: 72 hours treatment, 0 to 2 μM, CellTiter-Glo. A digest of the protocol: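 Commercial tumour lines, detached with trypsin-EDTA, were seeded and incubated 24 h. They were then dosed to 0–2 μM final, grown 72 h, and assessed for viability using CellTiter-Glo.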

Where [1] appears, read: 5637 cells, read-out: IC50, bladder cancer cell line 5637.
[2] abbreviates: Homo sapiens, T-24, T24 cells, read-out: IC50, bladder cancer cell line T24.
Where [3] appears, read: Homo sapiens, J82 cells, read-out: IC50, bladder cancer cell line J82.
[4] abbreviates: Homo sapiens, KU-19-19 cells, read-out: IC50, bladder cancer cell line KU-19-19.

What is called IC50 is the midpoint of a concentration-inhibition curve.

SMILES strings stand for the structures. Like-named read-outs stand apart in the source and are kept apart here.

As for `CC(=O)c1c([S+]([O-])Cc2ccc(F)cc2F)[nH]c2c(Br)ccc(Cl)c2c1=O` (stereo not drawn) [Compound 29, 3-acetyl-8-bromo-5-chloro-2-((2,4-difluorobenzyl)sulfinyl)quinolin-4(1H)-one], the IC50 reads like this: under setting [1], 1330 nM; under setting [2], 1090 nM; under setting [3], above 2000 nM.
On to `CC(=O)c1c([S+]([O-])Cc2ccc(F)c(Cl)c2)[nH]c2c(Br)ccc(Cl)c2c1=O` (stereo not drawn) [Compound 31, 3-acetyl-8-bromo-5-chloro-2-((3-chloro-4-fluorobenzyl)sulfinyl)quinolin-4(1H)-one], for which the IC50 is 1230 nM under setting [1], 1120 nM under setting [2] and 1380 nM under setting [3].
`CC(=O)c1c([S+]([O-])Cc2ccc([N+](=O)[O-])cc2)[nH]c2c(Br)ccc(Cl)c2c1=O` (stereo not drawn) [Compound 33, 3-acetyl-8-bromo-5-chloro-2-((4-nitrobenzyl)sulfinyl)quinolin-4(1H)-one]: the IC50 reads like this: under setting [1], above 2000 nM; under setting [2], 1030 nM; under setting [3], above 2000 nM.
`CC(=O)c1c(S(=O)(=O)Cc2ccccc2)[nH]c2c(Br)ccc(Cl)c2c1=O` [Compound 34, 3-acetyl-2-(benzylsulfonyl)-8-bromo-5-chloroquinolin-4(1H)-one]: the IC50 runs as follows: under setting [1], above 2000 nM; under setting [2], above 2000 nM; under setting [3], above 2000 nM.
With `CC(=O)c1c([S+]([O-])Cc2cc(Cl)ccc2Cl)[nH]c2c(Br)ccc(Cl)c2c1=O` (stereo not drawn) [Compound 44, 3-acetyl-8-bromo-5-chloro-2-((2,5-dichlorobenzyl)sulfinyl)quinolin-4(1H)-one], the IC50 amounted to 1350 nM under setting [1], 920 nM under setting [2] and 2070 nM under setting [3].
Consider `CC(=O)c1c([S+]([O-])Cc2cc(F)cc(F)c2)[nH]c2c(Br)ccc(Cl)c2c1=O` (stereo not drawn) [Compound 46, 3-acetyl-8-bromo-5-chloro-2-((3,5-difluorobenzyl)sulfinyl)quinolin-4(1H)-one], for which the IC50 under setting [1] is 1770 nM, the IC50 under setting [2] amounted to 1570 nM and the IC50 under setting [3] was above 2000 nM.
For the molecule `CC(=O)c1c([S+]([O-])Cc2cccc(F)c2)[nH]c2c(Br)ccc(Cl)c2c1=O` (stereo not drawn) [Compound 50, 3-acetyl-8-bromo-5-chloro-2-((3-fluorobenzyl)sulfinyl)quinolin-4(1H)-one], the IC50 is, setting by setting: under setting [1], 1470 nM; under setting [3], above 2000 nM.
On to `CC(=O)c1c([S+]([O-])Cc2cc(C)on2)[nH]c2c(Br)ccc(Cl)c2c1=O` (stereo not drawn) [Compound 51, 3-acetyl-8-bromo-5-chloro-2-(((5-methylisoxazol-3-yl)methyl)sulfinyl)quinolin-4(1H)-one], for which the IC50 is 1070 nM under setting [1], 890 nM under setting [2] and above 2000 nM under setting [3].
In the case of `COc1cccc(C[S+]([O-])c2[nH]c3c(Br)ccc(Cl)c3c(=O)c2C(C)=O)c1` (stereo not drawn) [Compound 55, 3-acetyl-8-bromo-5-chloro-2-((3-methoxybenzyl)sulfinyl)quinolin-4(1H)-one], the IC50 reads like this: under setting [1], above 2000 nM; under setting [2], 1540 nM; under setting [3], above 2000 nM.
As for `CC(=O)c1c([S+]([O-])Cc2ccc(SC(F)(F)F)cc2)[nH]c2c(Br)ccc(Cl)c2c1=O` (stereo not drawn) [Compound 56, 3-acetyl-8-bromo-5-chloro-2-((4-((trifluoromethyl)thio)benzyl)sulfinyl)quinolin-4(1H)-one], the 50% inhibitory concentration (IC50) is, setting by setting: under setting [1], above 2000 nM; under setting [2], 980 nM; under setting [3], 1460 nM; under setting [4], 900 nM.
As to `CC(=O)c1c([S+]([O-])Cc2ccc([N+](=O)[O-])cc2)[nH]c2c(Cl)ccc(Cl)c2c1=O` (stereo not drawn) [Compound 57, 3-acetyl-5,8-dichloro-2-((4-nitrobenzyl)sulfinyl)quinolin-4(1H)-one], the IC50 under setting [1] is above 2000 nM, the IC50 under setting [2] is 1790 nM and the IC50 under setting [3] was above 2000 nM.
As to `COc1cc(C[S+]([O-])c2[nH]c3c(Br)ccc(Cl)c3c(=O)c2C(C)=O)cc(OC)c1` (stereo not drawn) [Compound 59, 3-acetyl-8-bromo-5-chloro-2-((3,5-dimethoxybenzyl)sulfinyl)quinolin-4(1H)-one], the IC50 by setting is: under setting [1], above 2000 nM; under setting [2], 1110 nM; under setting [3], above 2000 nM.
`CC(=O)c1c([S+]([O-])Cc2ccc(C(C)(C)C)cc2)[nH]c2c(Br)ccc(Cl)c2c1=O` (stereo not drawn) [Compound 60, 3-acetyl-8-bromo-2-((4-(tert-butyl)benzyl)sulfinyl)-5-chloroquinolin-4(1H)-one]: the IC50 by setting is: under setting [1], above 2000 nM; under setting [2], 1720 nM; under setting [3], above 2000 nM.
As for `CC(=O)c1c([S+]([O-])Cc2ccc([S+]([O-])C(F)(F)F)cc2)[nH]c2c(Br)ccc(Cl)c2c1=O` (stereo not drawn) [Compound 64, 3-acetyl-8-bromo-5-chloro-2-((4-((trifluoromethyl)sulfinyl)benzyl)sulfinyl)quinolin-4(1H)-one], the IC50 amounted to 1520 nM under setting [1], 1040 nM under setting [2] and 1960 nM under setting [3].
As to `CC(=O)c1c([S+]([O-])Cc2ccc(C(F)(F)F)cc2)[nH]c2c(Br)ccc(Cl)c2c1=O` (stereo not drawn) [Compound 70, 3-acetyl-8-bromo-5-chloro-2-((4-(trifluoromethyl)benzyl)sulfinyl)quinolin-4(1H)-one], the IC50 by setting is: under setting [1], 1730 nM; under setting [2], 1690 nM; under setting [3], 1940 nM.
With `CC(=O)c1c([S+]([O-])Cc2ccc(OC(F)(F)F)cc2)[nH]c2c(Br)ccc(Cl)c2c1=O` (stereo not drawn) [Compound 71, 3-acetyl-8-bromo-5-chloro-2-((4-(trifluoromethoxy)benzyl)sulfinyl)quinolin-4(1H)-one], the IC50 by setting is: under setting [1], 1510 nM; under setting [2], 1390 nM; under setting [3], 1980 nM.
With `CC(=O)c1c([S+]([O-])Cc2ccc(C(F)(F)F)o2)[nH]c2c(Br)ccc(Cl)c2c1=O` (stereo not drawn) [Compound 72, 3-acetyl-8-bromo-5-chloro-2-(((5-(trifluoromethyl)furan-2-yl)methyl)sulfinyl)quinolin-4(1H)-one], the IC50 came out at 1640 nM under setting [1], 1250 nM under setting [2] and 1630 nM under setting [3].
For `CC(=O)c1c([S+]([O-])Cc2ccc(C#N)cc2)[nH]c2c(Br)ccc(Cl)c2c1=O` (stereo not drawn) [Compound 73, 4-(((3-acetyl-8-bromo-5-chloro-4-oxo-1,4-dihydroquinolin-2-yl)sulfinyl)methyl)benzonitrile], the IC50 runs as follows: under setting [1], above 2000 nM; under setting [3], above 2000 nM; under setting [4], above 2000 nM.
Consider `CC(=O)c1c([S+]([O-])Cc2c(F)cccc2Cl)[nH]c2c(Br)ccc(Cl)c2c1=O` (stereo not drawn) [Compound 74, 3-acetyl-8-bromo-5-chloro-2-((2-chloro-6-fluorobenzyl)sulfinyl)quinolin-4(1H)-one], for which the IC50 is 1600 nM under setting [1], 1070 nM under setting [2] and above 2000 nM under setting [3].
The corresponding values for `COc1cc(S(F)(F)(F)(F)F)ccc1C[S+]([O-])c1[nH]c2c(Br)ccc(Cl)c2c(=O)c1C(C)=O` (stereo not drawn) [Compound 75, 3-acetyl-8-bromo-5-chloro-2-((2-methoxy-4-(pentafluoro--sulfanyl)benzyl)sulfinyl)quinolin-4(1H)-one] are 1570 nM, 1330 nM and 1480 nM.
`CC(=O)c1c([S+]([O-])Cc2cc(F)cc(S(F)(F)(F)(F)F)c2)[nH]c2c(Br)ccc(Cl)c2c1=O` (stereo not drawn) [Compound 76, 3-acetyl-8-bromo-5-chloro-2-((3-fluoro-5-(pentafluoro--sulfanyl)benzyl)sulfinyl)quinolin-4(1H)-one]: the IC50 is, setting by setting: under setting [1], above 2000 nM; under setting [2], 1790 nM; under setting [3], above 2000 nM.
Consider `CC(=O)c1c([S+]([O-])Cc2c(F)c(F)c(F)c(F)c2F)[nH]c2c(Br)ccc(Cl)c2c1=O` (stereo not drawn) [Compound 78, 3-acetyl-8-bromo-5-chloro-2-(((perfluorophenyl)methyl)sulfinyl)quinolin-4(1H)-one], for which the IC50 was above 2000 nM under setting [1], 1800 nM under setting [2] and above 2000 nM under setting [3].
Consider `CC(=O)c1c([S+]([O-])Cc2ccc(I)cc2)[nH]c2c(Cl)ccc(Cl)c2c1=O` (stereo not drawn) [Compound 83, 3-acetyl-5,8-dichloro-2-((4-iodobenzyl)sulfinyl)quinolin-4(1H)-one], for which the IC50 by setting is: under setting [1], 1370 nM; under setting [2], 1500 nM; under setting [3], above 2000 nM.
On the same counts, the results for `CC(=O)c1c([S+]([O-])Cc2cccnc2)[nH]c2c(Br)ccc(Cl)c2c1=O` (stereo not drawn) [Compound 84, 3-acetyl-8-bromo-5-chloro-2-((pyridin-3-ylmethyl)sulfinyl)quinolin-4(1H)-one] are above 2000 nM, 1030 nM and above 2000 nM.
On to `Cc1cc(C[S+]([O-])c2[nH]c3c(Cl)ccc(Cl)c3c(=O)c2C(=O)C(C)C)no1` (stereo not drawn) [Compound 86, 5,8-dichloro-3-isobutyryl-2-(((5-methylisoxazol-3-yl)methyl)sulfinyl)quinolin-4(1H)-one], for which the IC50 is, setting by setting: under setting [1], 1360 nM; under setting [2], 1020 nM; under setting [3], 1610 nM.
On to `COC(=O)c1ccc(C[S+]([O-])c2[nH]c3c(Cl)ccc(Cl)c3c(=O)c2C(C)=O)o1` (stereo not drawn) [Compound 89, methyl 5-(((3-acetyl-5,8-dichloro-4-oxo-1,4-dihydroquinolin-2-yl)sulfinyl)methyl)furan-2-carboxylate], for which the IC50 was above 2000 nM under setting [1], 1750 nM under setting [2] and above 2000 nM under setting [3].
Take `Cc1cc(C[S+]([O-])c2[nH]c3c(Br)ccc(Cl)c3c(=O)c2C(=O)C(C)C)no1` (stereo not drawn) [Compound 95, 8-bromo-5-chloro-3-isobutyryl-2-(((5-methylisoxazol-3-yl)methyl)sulfinyl)quinolin-4(1H)-one]: the IC50 was determined as 1230 nM under setting [1], 980 nM under setting [2] and 1470 nM under setting [3].
